Measurements: US11786523B2, “Composition and method for reducing thrombocytopenia” (BEYONDSPRING PHARMACEUTICALS, INC., priority 2018, dated 2023)

Key:
[1] = tested on: gemcitabine-induced thrombocytopenia; assay: Effects of plinabulin on hematology parameters (platelet counts) following gemcitabine administration in the rat; type: in vivo
Method: The effects of plinabulin on the hematology parameters following changes induced by gemcitabine administration in the rat were evaluated. The vehicle was prepared using 7.11% Tween 80 (v/v): 25.5% Propylene glycol (v/v): 67.4% D5W (v/v). D5W is 5% dextrose in water for injection.
Plinabulin or Pegfilgrastim were first dissolved in the Tween 80-PG mixture and then diluted with D5W. Test item was dissolved in Tween 80-PG mixture on the day before and stored at RF. D5W was added on the day of dosing to complete the formulation.
Animals were randomized based on body weight and/or absolute neutrophil counts and assigned to groups. Before the initiation of dosing, any assigned animals considered unsuitable for use in the study were replaced by alternate animals obtained from the same shipment and maintained under the same environmental conditions. Each animal was uniquely identified using indelible ink. A minimum acclimation period of 5 days was allowed between animal receipt and the start of treatment in order to accustom the animals to the laboratory environment.
For the lab evaluation, the animal blood was collected by jugular venipuncture. Samples (0.3 mL) were collected in EDTA tubes. Additional blood samples may be obtained (e.g., due to clotting of non-serum samples) if permissible sampling frequency and blood volume are not exceeded. After collection, samples were transferred to Clinical Laboratories for hematology analysis using the Advia and results entered into the Provantis® system.
Administration of Inducing Agent
1. Gemcitabine; Groups 1, 3 and 4
Dosing regimen: Single dosing on Day 1
Intravenously (IV bolus) over ˜1 minute at a dose volume of 5 mL/kg.
Group 2 received Vehicle.
2. Pegfilgrastim; Groups 2 and 4
Dosing regimen: Single dosing on Day 2, 24 hours after Gemcitabine
Route of administration: Subcutaneous (SC) injection.
Dose volume: 10 mL/kg, based on the most recent body weight measurement
Dosing regimen: Single dosing on Day 1, 1 hr after Gemcitabine
Route of administration: Intra-peritoneal (IP) injection.
Group 1 received Vehicle.
The dosing time points for groups 1 to 4 include days −3, 1, 2, 3, 4, 5, 6, 7, 8, 9 and 10. Additional blood samples may be obtained (e.g., due to clotting of non-serum samples) if permissible sampling frequency and blood volume are not exceeded. After collection, samples will be transferred to Clinical Laboratories for hematology analysis using the Advia and results entered into the Provantis® system.

[2] = tested on: thrombocytopenia in patients receiving docetaxel; assay: Phase 2/3 randomized study of plinabulin versus pegfilgrastim in patients with solid tumors receiving docetaxel myelosuppressive chemotherapy (platelet count, thrombocytopenia); type: in vivo, human; conditions: patients on docetaxel 75 mg/m^2, preliminary; for change of platelet count (percent) from day 1 to day 15: pegfilgrastim 6 mg vs plinabulin 20 mg/m^2, FIG. 2; for development of thrombocytopenia (percentage of patients at each grade): plinabulin 20 mg/m^2 vs pegfilgrastim 6 mg, FIG. 5
Method: The effects of plinabulin on the thrombocytopenia is studied in comparison to pegfilgrastim. A phase 2/3, multicenter, randomized, double blind study is performed with plinabulin versus pegfilgrastim in patients with solid tumors receiving docetaxel myelosuppressive chemotherapy is evaluated. The patients are on study for approximately 5 months, including screening, on treatment, and follow-up. Study design: This is a multicenter, randomized study with an open label phase 2 portion and a double blind phase 3 portion. Approximately 190 patients are enrolled in this study. All patients receive docetaxel at a dose of 75 mg/m^2. In Phase 2, only patients with advanced or metastatic NSCLC after failing platinum-based therapy are enrolled. In Phase 3, patients with one of the following diagnosis are enrolled: advanced or metastatic breast cancer, who have failed<5 prior lines of chemotherapy; advanced or metastatic NSCLC who have previously received platinum-based therapy and have either disease progression, are intolerant of platinum-based therapy or, in the opinion of the investigator, would benefit from docetaxel chemotherapy; or hormone refractory (androgen independent) metastatic prostate cancer. The eligibility of all patients will be determined during a 28-day screening period. Phase 2 (Open Label): Approximately 40 patients with advanced or metastatic NSCLC are enrolled. Patients are randomly assigned with approximately 10 patients enrolled in each arm, with the arm designation and planned intervention as follows: Arm 1: Docetaxel (75 mg/m^2)+pegfilgrastim (6 mg) Arm 2: Docetaxel (75 mg/m^2)+plinabulin (20 mg/m^2) Arm 3: Docetaxel (75 mg/m^2)+plinabulin (10 mg/m^2) Arm 4: Docetaxel (75 mg/m^2)+plinabulin (5 mg/m^2) Once the study is temporarily closed to enrollment in phase 2, a PK/PD analysis is performed to determine the RP3D. The PK/PD analysis is done by an independent party at the time 40 patients in Phase 2 have completed at least Cycle 1. Treatments Administered: Both Phase 2 and Phase 3, Cycles 1 to 4, consist of docetaxel 75 mg/m^2 administered by intravenous (IV) infusion on Day 1 over 60 minutes (±5 minutes) every 21 days. In the phase 2 portion, on Day 1 of each cycle, 1.5 hours (±10 minutes) after the start time of docetaxel infusion (i.e., approximately 30 minutes after the end of docetaxel infusion), patients assigned to a plinabulin arm (arms 2-4) get a single intravenous infusion of plinabulin at their assigned dose over 30 minutes (±5 minutes). Thus, the wait time between end of docetaxel infusion and start of the plinabulin infusion is approximately 30 minutes. On Day 2 of each cycle, ≥24 hours after completing chemotherapy, patients assigned to pegfilgrastim (arm 1) receive a single dose of pegfilgrastim (6 mg) (subcutaneous injection). Laboratory test results (hematology and serum chemistry) are collected via a central laboratory. Safety laboratory tests are required prior to treatment on Day 1 of each cycle and can be collected by a local laboratory; however, all other scheduled blood samples as per the schedule assessments and procedure table must also be obtained for central laboratory assessment. Urinalysis is performed at screening only. CD34+ counts are established through a fluorescence-activated cell sorting (FACS) method. Duration of Treatment: Patients received treatment with study drug for up to 4 cycles in this study, a treatment cycle is 21 days; thereafter, patients may continue receiving docetaxel and pegfilgrastim at the Investigator's discretion. After completion of 4 cycles, patients completed a safety follow-up visit 30 days (±2 days) after the last dose of study drug. If, in the opinion of the investigator, the patient would benefit from more than 4 cycles of docetaxel and open label pegfilgrastim, then the fifth cycle would not start until completion of the safety follow-up visit (in this instance, the safety follow-up visit will be Cycle 4 Day 21).

CC(C)(C)c1[nH]cnc1/C=c1\[nH]c(=O)/c(=C/c2ccccc2)[nH]c1=O [plinabulin, Plinabulin]
platelet counts versus gemcitabine alone group ([1]; Days 8 and 9, gemcitabine and plinabulin group): statistically greater
effect on thrombocytopenia observed with gemcitabine alone ([1]; gemcitabine 100 mg/kg IV + plinabulin 7.5 mg/kg IP, FIG. 1): reduced the thrombocytopenia observed with gemcitabine alone
platelet counts ([1]; gemcitabine 100 mg/kg IV Day 1 + plinabulin 7.5 mg/kg IP 1 hr after, all sampling days, FIG. 1): > 500 ×10^3 cells/μL
recovery from gemcitabine-induced thrombocytopenia versus gemcitabine alone ([1]; gemcitabine and plinabulin group): more rapid
percentage of patients with greater than 30% platelet decrease from baseline, compared with pegfilgrastim group ([2]; cycles 1-4, plinabulin groups, FIG. 3): lower percentages
change of platelet count (percent) from day 1 to day 15 [2]: more effective in maintaining the platelet count
development of thrombocytopenia (percentage of patients at each grade) [2]: did not develop thrombocytopenia
incidence of developing thrombocytopenia (percentage of patients at each grade) ([2]; plinabulin 5, 10 and 20 mg/m^2 vs pegfilgrastim 6 mg, FIG. 4): lower incidences of developing thrombocytopenia than the pegfilgrastim group

B1: pegfilgrastim (protein, chains of the INN, looked up)
chain: TPLGPASSLPQSFLLKCLEQVRKIQGDGAALQEKLCATYKLCHPEELVLLGHSLGIPWAPLSSCPSQALQLAGCLSQLHSGLFLYQGLLQALEGISPELGPTLDTLQLDVADFATTIWQQMEELGMAPALQPTQGAMPAFASAFQRRAGGVLVASHLQSFLEVSYRVLRHLAQP
modifications: PEG
notes: granulocyte-colony stimulating factor (G-CSF) drug used as comparator
percentage of patients with greater than 30% platelet decrease from baseline ([2]; cycles 1-4, FIG. 3): ~85%
change of platelet count (percent) from day 1 to day 15 [2]: greater than the plinabulin group
development of thrombocytopenia (percentage of patients at each grade) [2]: some patients in the pegfilgrastim group developed thrombocytopenia
